A short description of the data set: Gel-forming ability test (heat to dissolve, cool to 25° C.). Format: physicochemical. The settings on record: 1 mg gelatinizer in water (900 mg) and methanol (100 mg); heated, gradually cooled, left at room temperature approximately 2-5 hours; tube inverted. How it is done: The dodecanoylaminophenol-β-D-glucopyranoside and dodecanoylaminophenol-β-D-galactopyranoside (1 mg of each) obtained in the above experiments were respectively weighed out into test tubes, and a mixed solvent of water (900 mg) and methanol (100 mg) was added. The mixture was heated to ensure complete dissolution. Subsequently, it was gradually cooled, and left at room temperature for approximately 2-5 hours.
The gel-forming ability was evaluated as follows.
The solvent was water (including a small amount of methanol and ethanol), methanol, ethanol, 1-butanol, t-butanol, tetrahydrofuran, chloroform, dichloromethane, n-hexane, ethyl acetate, dimethylformamide or dimethyl sulfoxide.
One of the aforesaid solvents was mixed in a test tube wherein the two types of gelatinizer prepared in the Examples were sealed such that the concentration of gelatinizer was 0.1-3.0 wt %, and this mixture was heated until the solids dissolved. The resulting solution was cooled to 25° C. for one hour. The gelatinizer and solvent were introduced into a test tube capped by a diaphragm, and heated in the oil bath until the solids dissolved. This solution was cooled to 25° C.

Take “dodecanoylaminophenol-β-D-galactopyranoside”: the hydrated gel formation entry was “hydrated gel which did not collapse even when inverted”. Then “dodecanoylaminophenol-β-D-glucopyranoside”, with “hydrated gel which did not collapse even when inverted”.

These data come from US20040014683A1, “Sugar-derived gellant for hydrogel formation” (priority 2001, published 2004).
